Test results from US9617289B2, “RSV antiviral compounds” (JANSSEN R&D IRELAND, priority 2012, dated 2017).

Test system: rgRSV224 virus
Test: Antiviral activity: inhibition of rgRSV224 (GFP-expressing RSV) replication in HeLa cells
Assay type: cell-based, respiratory syncytial virus
Settings: human respiratory syncytial virus, HeLa, 72 h, read-out: RSV-wt_pEC50, rgRSV224 (MOI=0.02) in HeLa cells, GFP expression three days post-virus exposure
Protocol: Black 96-well clear-bottom microtiter plates (Corning, Amsterdam, The Netherlands) were filled in duplicate using a customized robot system with serial 4-fold dilutions of compound in a final volume of 50 μl culture medium [RPMI medium without phenol red, 10% FBS, 0.04% gentamycin (50 mg/ml) and 0.5% DMSO]. Then, 100 μl of a HeLa cell suspension (5×10^4 cells/ml) in culture medium was added to each well followed by the addition of 50 μl rgRSV224 (MOI=0.02) virus in culture medium using a multidrop dispenser (Thermo Scientific, Erembodegem, Belgium). rgRSV224 virus is an engineered virus that includes an additional GFP gene (Hallak et al, 2000) and was in-licensed from the NIH (Bethesda, Md., USA). Medium, virus- and mock-infected controls were included in each test. Cells were incubated at 37° C. in a 5% CO2 atmosphere. Three days post-virus exposure, viral replication was quantified by measuring GFP expression in the cells by a MSM laser microscope (Tibotec, Beerse, Belgium). The EC50 was defined as the 50% inhibitory concentration for GFP expression. In parallel, compounds were incubated for three days in a set of white 96-well microtitier plates (Corning) and the cytotoxicity of compounds in HeLa cells was determined by measuring the ATP content of the cells using the ATPlite kit (PerkinElmer, Zaventem, Belgium) according to the manufacturer's instructions. The CC50 was defined as the 50% concentration for cytotoxicity. SI is calculated as CC50/EC50.

Row | SMILES | EC50 [nM]
1 | N#CCCCn1c(CN2C(=O)C3(CN(C(=O)[C@@H](O)CO)C3)c3ccccc32)cc2cc(Cl)ccc21 (single isomer, unassigned) [Compound 129] | 0.355

Same assay, conditions: human respiratory syncytial virus, HeLa, 72 h, read-out: pEC50, rgRSV224 (MOI=0.02) in HeLa cells, GFP expression three days post-virus exposure (converted)

Row | SMILES | EC50 [nM]
2 | CC(C)(C)OC(=O)N1CCC2(CC1)C(=O)N(Cc1cc3cc(Cl)ccc3n1CCCS(C)(=O)=O)c1cnccc12 [Compound 1, tert-butyl 1′-({5-chloro-1-[3-(methylsulfonyl)propyl]-1H-indol-2-yl}methyl)-2′-oxo-1′,2′-dihydro-1H-spiro [piperidine-4,3′-pyrrolo[2,3-c]pyridine]-1-carboxylate] | 0.631
3 | CS(=O)(=O)CCCn1c(CN2C(=O)C3(CCNCC3)c3ccncc32)cc2cc(Cl)ccc21 [Compound 2, 1′-({5-chloro-1-[3-(methylsulfonyl)propyl]-1H-indol-2-yl}methyl)spiro[piperidine-4,3′-pyrrolo[2,3-c]pyridin]-2′(1′H)-one] | 50.1
4 | CS(=O)(=O)CCCn1c(CN2C(=O)C3(CCN(S(C)(=O)=O)CC3)c3ccncc32)cc2cc(Cl)ccc21 [Compound 3, 1′-({5-chloro-1-[3-(methylsulfonyl)propyl]-1H-indol-2-yl}methyl)-1-(methylsulfonyl)spiro[piperidine-4,3′-pyrrolo[2,3-c]pyridin]-2′(1′H)-one] | 0.0316
5 | CC(C)(C)OC(=O)N1CC2(C1)C(=O)N(Cc1nc3cc(Cl)ccc3n1CCCS(C)(=O)=O)c1ccccc12 [Compound 4, tert-butyl 1′-({5-chloro-1-[3-(methylsulfonyl)propyl]-1H-benzimidazol-2-yl}methyl)-2′-oxo-1′,2′-dihydro-1H-spiro[azetidine-3,3′-indole]-1-carboxylate] | 0.0794
6 | CS(=O)(=O)CCCn1c(CN2C(=O)C3(CNC3)c3ccccc32)nc2cc(Cl)ccc21 [Compound 5, 1′-({5-chloro-1-[3-(methylsulfonyl)propyl]-1H-benzimidazol-2-yl}methyl)spiro[azetidine-3,3′-indol]-2′(1′H)-one] | 5.01
7 | CC(C)(O)C(=O)N1CC2(C1)C(=O)N(Cc1nc3cc(Cl)ccc3n1CCCS(C)(=O)=O)c1ccccc12 [Compound 6, 1′-({5-chloro-1-[3-(methylsulfonyl)propyl]-1H-benzimidazol-2-yl}methyl)-1-(2-hydroxy-2-methylpropanoyl)spiro[azetidine-3,3′-indol]-2′(1′H)-one] | 0.501
8 | CS(=O)(=O)CCCn1c(CN2C(=O)C3(CN(c4cccnc4)C3)c3ccccc32)nc2cc(Cl)ccc21 [Compound 7, 1′-({5-chloro-1-[3-(methylsulfonyl)propyl]-1H-benzimidazol-2-yl}methyl)-1-(pyridin-3-yl)spiro[azetidine-3,3′-indol]-2′(1′H)-one] | 0.0251
9 | CC(C)(O)CN1CC2(C1)C(=O)N(Cc1nc3cc(Cl)ccc3n1CCCS(C)(=O)=O)c1ccccc12 [Compound 8, 1′-({5-chloro-1-[3-(methylsulfonyl)propyl]-1H-benzimidazol-2-yl}methyl)-1-(2-hydroxy-2-methylpropyl)spiro[azetidine-3,3′-indol]-2′(1′H)-one] | 0.794
10 | CS(=O)(=O)CCCn1c(CN2C(=O)C3(CCN(S(=O)(=O)c4ccc5nccnc5c4)CC3)c3ccncc32)nc2cc(Cl)ccc21 [Compound 13, 1′-((5-chloro-1-(3-(methylsulfonyl)propyl)-1H-benzo[d]-imidazol-2-yl)methyl)-1-(quinoxalin-6-ylsulfonyl)spiro-[piperidine-4,3′-pyrrolo[2,3-c]pyridin]-2′(1′H)-one] | 0.0501
11 | CC(C)(C)OC(=O)N1CCC2(CC1)C(=O)N(Cc1nc3cc(Cl)ccc3n1CCCS(C)(=O)=O)c1cnccc12 [Compound 14, tert-butyl 1′-((5-chloro-1-(3-(methylsulfonyl)propyl)-1H-benzo[d]imidazol-2-yl)methyl)-2′-oxo-1′,2′-dihydrospiro-[piperidine-4,3′-pyrrolo[2,3-c]pyridine]-1-carboxylate] | < 0.158
